The compounds below were run on corn rust (assay: Protectant activity in vivo (whole plant) against corn rust). Settings: Zea mays, 168 h; 6.25 mg/L.
In short: (§1)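 Compound stock in organic solvent (≤5% v/v) diluted in water with 0.1% Tween-80 and sprayed onto whole host plants. Fungal inoculation 24 h later; humidity chamber then greenhouse as the pathogen requires. Activity rated visually, usually after 7 days.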

SMILES | pest or weed control at 6.25 µg/mL
N#Cc1c(Cl)c(Cl)c(Nc2ccc(Cl)cc2)c(C#N)c1Cl [KC2] | 0%
N#Cc1c(Cl)c(Cl)c(Nc2ccc([N+](=O)[O-])cc2)c(C#N)c1Cl [KC5] | 0%

Same assay, conditions: Zea mays, 168 h; 25 mg/L

SMILES | pest or weed control at 25 µg/mL
N#Cc1c(Cl)c(Cl)c(Nc2ccc(Cl)cc2)c(C#N)c1Cl [KC2] | 0%
N#Cc1c(F)c(Cl)c(Nc2ccc([N+](=O)[O-])cc2)c(C#N)c1F [KC22] | 0%
N#Cc1c(Cl)c(Cl)c(Nc2ccc([N+](=O)[O-])cc2)c(C#N)c1Cl [KC5] | 0%

Same assay, conditions: Zea mays, 168 h; 100 mg/L

SMILES | pest or weed control at 100 µg/mL
N#Cc1c(Cl)c(Cl)c(Nc2ccc(Cl)cc2)c(C#N)c1Cl [KC2] | 0%
N#Cc1c(F)c(Cl)c(Nc2ccc([N+](=O)[O-])cc2)c(C#N)c1F [KC22] | 0%

Same assay, conditions: Zea mays, 168 h; 400 mg/L; read-out: the protectant activity (%) against corn rust

SMILES | pest or weed control at 400 µg/mL
N#Cc1c(Cl)c(Cl)c(Cl)c(Cl)c1C#N [STM-2] | 70%
N#Cc1c(Cl)c(Cl)c(Nc2ccc(Cl)cc2)c(C#N)c1Cl [KC2] | 0%
N#Cc1ccc(Nc2c(Cl)c(F)c(C#N)c(F)c2C#N)cc1 [KC21] | 80%
N#Cc1c(F)c(Cl)c(Nc2ccc([N+](=O)[O-])cc2)c(C#N)c1F [KC22] | 0%

Same assay, conditions: Zea mays, 168 h; dose 400 mg/L; read-out: protectant activity against corn rust in vivo

SMILES | pest or weed control at 400 µg/mL
N#Cc1c(Cl)c(Cl)c(Nc2ccc(Cl)cc2)c(C#N)c1Cl [KC2] | 0%
N#Cc1c(F)c(Cl)c(Nc2ccc([N+](=O)[O-])cc2)c(C#N)c1F [KC22] | 0%
N#Cc1c(Cl)c(Cl)c(Nc2ccc([N+](=O)[O-])cc2)c(C#N)c1Cl [KC5] | 0%

Each compound was assayed on rice blast (assay: microbe, parasite or virus in culture). Settings: Pyricularia oryzae, read-out: inhibition rate against rice blast.
Assay type: cell-based

SMILES | inhibition at 25 µg/mL
N#Cc1c(Cl)c(Cl)c(Cl)c(Cl)c1C#N [STM-2] | 50%
N#Cc1c(Cl)c(Cl)c(Nc2ccc(Cl)cc2)c(C#N)c1Cl [KC2] | 0%
N#Cc1ccc(Nc2c(Cl)c(F)c(C#N)c(F)c2C#N)cc1 [KC21] | 0%
N#Cc1c(F)c(Cl)c(Nc2ccc([N+](=O)[O-])cc2)c(C#N)c1F [KC22] | 0%

Same assay, conditions: Pyricularia oryzae, read-out: the inhibition rate against rice blast (%) 0.03 mg/L

SMILES | inhibition at 0.03 µg/mL
N#Cc1c(Cl)c(Cl)c(Nc2ccc(Cl)cc2)c(C#N)c1Cl [KC2] | 0%
N#Cc1ccc(Nc2c(Cl)c(F)c(C#N)c(F)c2C#N)cc1 [KC21] | 0%
N#Cc1c(F)c(Cl)c(Nc2ccc([N+](=O)[O-])cc2)c(C#N)c1F [KC22] | 0%
N#Cc1c(Cl)c(Cl)c(Nc2ccc([N+](=O)[O-])cc2)c(C#N)c1Cl [KC5] | 0%

Same assay, conditions: Pyricularia oryzae, read-out: the inhibition rate against rice blast (%) 0.1 mg/L

SMILES | inhibition at 0.1 µg/mL
N#Cc1c(Cl)c(Cl)c(Nc2ccc(Cl)cc2)c(C#N)c1Cl [KC2] | 0%
N#Cc1ccc(Nc2c(Cl)c(F)c(C#N)c(F)c2C#N)cc1 [KC21] | 0%
N#Cc1c(F)c(Cl)c(Nc2ccc([N+](=O)[O-])cc2)c(C#N)c1F [KC22] | 0%
N#Cc1c(Cl)c(Cl)c(Nc2ccc([N+](=O)[O-])cc2)c(C#N)c1Cl [KC5] | 0%

Same assay, conditions: Pyricularia oryzae, read-out: the inhibition rate against rice blast (%) 0.3 mg/L

SMILES | inhibition at 0.3 µg/mL
N#Cc1c(Cl)c(Cl)c(Cl)c(Cl)c1C#N [STM-2] | 50%
N#Cc1c(Cl)c(Cl)c(Nc2ccc(Cl)cc2)c(C#N)c1Cl [KC2] | 0%
N#Cc1ccc(Nc2c(Cl)c(F)c(C#N)c(F)c2C#N)cc1 [KC21] | 0%
N#Cc1c(F)c(Cl)c(Nc2ccc([N+](=O)[O-])cc2)c(C#N)c1F [KC22] | 0%
N#Cc1c(Cl)c(Cl)c(Nc2ccc([N+](=O)[O-])cc2)c(C#N)c1Cl [KC5] | 0%

These compounds were tested on cucumber downy mildew (assay: Protectant activity in vivo (whole plant) against cucumber downy mildew). Settings: Cucumis sativus, 168 h; 12.5 mg/L.
In short: as §1

SMILES | pest or weed control at 12.5 µg/mL
N#Cc1c(Cl)c(Cl)c(Nc2ccc(Cl)cc2)c(C#N)c1Cl [KC2] | 0%
N#Cc1c(F)c(Cl)c(Nc2ccc([N+](=O)[O-])cc2)c(C#N)c1F [KC22] | 0%
N#Cc1c(Cl)c(Cl)c(Nc2ccc([N+](=O)[O-])cc2)c(C#N)c1Cl [KC5] | 0%

Same assay, conditions: Cucumis sativus, 168 h; 25 mg/L; read-out: the protectant activity (%) against cucumber downy mildew

SMILES | pest or weed control at 25 µg/mL
N#Cc1c(Cl)c(Cl)c(Nc2ccc(Cl)cc2)c(C#N)c1Cl [KC2] | 0%
N#Cc1c(F)c(Cl)c(Nc2ccc([N+](=O)[O-])cc2)c(C#N)c1F [KC22] | 0%
N#Cc1c(Cl)c(Cl)c(Nc2ccc([N+](=O)[O-])cc2)c(C#N)c1Cl [KC5] | 0%

Same assay, conditions: Cucumis sativus, 168 h; 50 mg/L; read-out: the protectant activity (%) against cucumber downy mildew

SMILES | pest or weed control at 50 µg/mL
N#Cc1c(Cl)c(Cl)c(Nc2ccc(Cl)cc2)c(C#N)c1Cl [KC2] | 0%
N#Cc1c(F)c(Cl)c(Nc2ccc([N+](=O)[O-])cc2)c(C#N)c1F [KC22] | 0%

Same assay, conditions: Cucumis sativus, 168 h; 100 mg/L; read-out: the protectant activity (%) against cucumber downy mildew

SMILES | pest or weed control at 100 µg/mL
N#Cc1c(Cl)c(Cl)c(Nc2ccc(Cl)cc2)c(C#N)c1Cl [KC2] | 0%
N#Cc1ccc(Nc2c(Cl)c(F)c(C#N)c(F)c2C#N)cc1 [KC21] | 70%
N#Cc1c(F)c(Cl)c(Nc2ccc([N+](=O)[O-])cc2)c(C#N)c1F [KC22] | 0%

Same assay, conditions: Cucumis sativus, 168 h; dose 25 mg/L; read-out: protectant activity against cucumber downy mildew in vivo

SMILES | pest or weed control at 25 µg/mL
N#Cc1c(Cl)c(Cl)c(Cl)c(Cl)c1C#N [STM-2] | 10%
N#Cc1c(Cl)c(Cl)c(Nc2ccc([N+](=O)[O-])cc2)c(C#N)c1Cl [KC5] | 0%

Same assay, conditions: Cucumis sativus, 168 h; dose 50 mg/L; read-out: protectant activity against cucumber downy mildew in vivo

SMILES | pest or weed control at 50 µg/mL
N#Cc1c(Cl)c(Cl)c(Nc2ccc([N+](=O)[O-])cc2)c(C#N)c1Cl [KC5] | 20%

Same assay, conditions: Cucumis sativus, 168 h; dose 400 mg/L

SMILES | pest or weed control at 400 µg/mL
N#Cc1c(Cl)c(Cl)c(Nc2ccc(Cl)cc2)c(C#N)c1Cl [KC2] | 0%
N#Cc1c(F)c(Cl)c(Nc2ccc([N+](=O)[O-])cc2)c(C#N)c1F [KC22] | 0%

The compounds below were run on cucumber gray mold (assay: Activity in vitro (96-well, High Through Put): inhibition rate against cucumber gray mold). Settings: 0.3 mg/L.
Assay type: cell-based
In short: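 Compound in acetone, methanol or DMF was combined with pathogen suspension under sterile conditions and held in a constant-temperature box. After 24 hours germination or growth was scored by eye against an untreated control to give the inhibition rate.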

SMILES | inhibition at 0.3 µg/mL
N#Cc1c(Cl)c(Cl)c(Cl)c(Cl)c1C#N [STM-2] | 0%
N#Cc1c(Cl)c(Cl)c(Nc2ccc(Cl)cc2)c(C#N)c1Cl [KC2] | 0%
N#Cc1ccc(Nc2c(Cl)c(F)c(C#N)c(F)c2C#N)cc1 [KC21] | 0%
N#Cc1c(F)c(Cl)c(Nc2ccc([N+](=O)[O-])cc2)c(C#N)c1F [KC22] | 0%
N#Cc1c(Cl)c(Cl)c(Nc2ccc([N+](=O)[O-])cc2)c(C#N)c1Cl [KC5] | 0%

Same assay, conditions: 0.9 mg/L; read-out: the inhibition rate against cucumber gray mold (%)

SMILES | inhibition at 0.9 µg/mL
N#Cc1c(Cl)c(Cl)c(Cl)c(Cl)c1C#N [STM-2] | 0%
N#Cc1c(Cl)c(Cl)c(Nc2ccc(Cl)cc2)c(C#N)c1Cl [KC2] | 0%
N#Cc1ccc(Nc2c(Cl)c(F)c(C#N)c(F)c2C#N)cc1 [KC21] | 0%
N#Cc1c(F)c(Cl)c(Nc2ccc([N+](=O)[O-])cc2)c(C#N)c1F [KC22] | 0%
N#Cc1c(Cl)c(Cl)c(Nc2ccc([N+](=O)[O-])cc2)c(C#N)c1Cl [KC5] | 0%

Same assay, conditions: 2.8 mg/L; read-out: the inhibition rate against cucumber gray mold (%)

SMILES | inhibition at 2.8 µg/mL
N#Cc1c(Cl)c(Cl)c(Cl)c(Cl)c1C#N [STM-2] | 0%
N#Cc1c(Cl)c(Cl)c(Nc2ccc(Cl)cc2)c(C#N)c1Cl [KC2] | 0%
N#Cc1ccc(Nc2c(Cl)c(F)c(C#N)c(F)c2C#N)cc1 [KC21] | 0%
N#Cc1c(F)c(Cl)c(Nc2ccc([N+](=O)[O-])cc2)c(C#N)c1F [KC22] | 0%

Same assay, conditions: 8.3 mg/L; read-out: the inhibition rate against cucumber gray mold (%)

SMILES | inhibition at 8.3 µg/mL
N#Cc1c(Cl)c(Cl)c(Cl)c(Cl)c1C#N [STM-2] | 0%
N#Cc1c(Cl)c(Cl)c(Nc2ccc(Cl)cc2)c(C#N)c1Cl [KC2] | 0%
N#Cc1ccc(Nc2c(Cl)c(F)c(C#N)c(F)c2C#N)cc1 [KC21] | 0%
N#Cc1c(F)c(Cl)c(Nc2ccc([N+](=O)[O-])cc2)c(C#N)c1F [KC22] | 0%

Same assay, conditions: in vitro, dose 25 mg/L

SMILES | inhibition at 25 µg/mL
N#Cc1c(Cl)c(Cl)c(Cl)c(Cl)c1C#N [STM-2] | 0%
N#Cc1c(Cl)c(Cl)c(Nc2ccc(Cl)cc2)c(C#N)c1Cl [KC2] | 0%
N#Cc1ccc(Nc2c(Cl)c(F)c(C#N)c(F)c2C#N)cc1 [KC21] | 0%
N#Cc1c(F)c(Cl)c(Nc2ccc([N+](=O)[O-])cc2)c(C#N)c1F [KC22] | 0%
N#Cc1c(Cl)c(Cl)c(Nc2ccc([N+](=O)[O-])cc2)c(C#N)c1Cl [KC5] | 0%

The compounds below were run on wheat powdery mildew (assay: Protectant activity in vivo (whole plant) against wheat powdery mildew). Settings: Triticum aestivum, 168 h; dose 400 mg/L.
Experimental: The method is as followed: The whole plant is used in this test. The compound is dissolved in a proper solvent to get mother solution. The proper solvent is selected from acetone, methanol, DMF and so on according to their dissolving capability to the sample. The volume rate of solvent and testing solution (v/v) is equal to or less than 5%. The mother solution is diluted with water containing 0.1% tween-80 to get the testing solution whose concentration is designed. The testing solution is sprayed to the host plant by a special plant sprayer. The plant is inoculated with fungus after 24 hours. According to the infecting characteristic of fungus, the plant is stored in a humidity chamber and then transferred into greenhouse after infection is finished. And the other plants are placed in greenhouse directly. The activity of compound is obtained by eyeballing after 7 days in common.

SMILES | pest or weed control at 400 µg/mL
N#Cc1c(Cl)c(Cl)c(Cl)c(Cl)c1C#N [STM-2] | 0%
N#Cc1c(Cl)c(Cl)c(Nc2ccc(Cl)cc2)c(C#N)c1Cl [KC2] | 0%
N#Cc1ccc(Nc2c(Cl)c(F)c(C#N)c(F)c2C#N)cc1 [KC21] | 0%
N#Cc1c(F)c(Cl)c(Nc2ccc([N+](=O)[O-])cc2)c(C#N)c1F [KC22] | 0%
N#Cc1c(Cl)c(Cl)c(Nc2ccc([N+](=O)[O-])cc2)c(C#N)c1Cl [KC5] | 0%
